Columns and labels:
Assay in all cases: Post-emergence herbicidal action, greenhouse pot trial
Assay type in all cases: in vivo
[1] = tested on: Abutilon theophrasti (ABUTH); details: visual rating after about 3 weeks; for pest or weed control at 80 g/ha / pest or weed control at 320 g/ha: Abutilon theophrasti, 504 h; for pest or weed control at 80 g/ha: read-out: Post-emergence effect at 80 g/ha against ABUTH in %; for pest or weed control at 320 g/ha: read-out: Post-emergence effect at 320 g/ha against ABUTH in %
How it was run: (§1)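 Visual % activity versus untreated controls (100% = plants died, 0% = like control), scored about 3 weeks post-spray. Plants grown in sandy loam pots under greenhouse conditions were treated at the one-leaf stage with WP or EC formulations at 320 g/ha or lower.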

[2] = tested on: Amaranthus retroflexus (AMARE); details: visual rating after about 3 weeks; for pest or weed control at 80 g/ha / pest or weed control at 320 g/ha: Amaranthus retroflexus, 504 h; for pest or weed control at 80 g/ha: read-out: Post-emergence effect at 80 g/ha against AMARE in %; for pest or weed control at 320 g/ha: read-out: Post-emergence effect at 320 g/ha against AMARE in %
How it was run: as §1

[3] = tested on: Avena fatua (AVEFA); details: Avena fatua, 504 h, 320 g/ha, visual rating after about 3 weeks, read-out: Post-emergence effect at 320 g/ha against AVEFA in %
How it was run: as §1

[4] = tested on: Bassia scoparia (KCHSC)
How it was run: as §1

[5] = tested on: Digitaria sanguinalis (DIGSA); details: visual rating after about 3 weeks; for pest or weed control at 320 g/ha: Digitaria sanguinalis, 504 h, read-out: Post-emergence effect at 320 g/ha against DIGSA in %
How it was run: as §1

[6] = tested on: Echinochloa crus-galli (ECHCG); details: Echinochloa crus-galli, 504 h, visual rating after about 3 weeks; for pest or weed control at 320 g/ha: read-out: Post-emergence effect at 320 g/ha against ECHCG in %
How it was run: as §1

[7] = tested on: Lolium rigidum (LOLRI); details: Lolium rigidum, 504 h, 320 g/ha, visual rating after about 3 weeks, read-out: Post-emergence effect at 320 g/ha against LOLRI in %
How it was run: as §1

[8] = tested on: Matricaria inodora (MATIN); details: Tripleurospermum inodorum, 504 h, visual rating after about 3 weeks; for pest or weed control at 80 g/ha: read-out: Post-emergence effect at 80 g/ha against MATIN in %; for pest or weed control at 320 g/ha: read-out: Post-emergence effect at 320 g/ha against MATIN in %
How it was run: as §1

[9] = tested on: Pharbitis purpurea (PHBPU); details: Ipomoea purpurea, 504 h, visual rating after about 3 weeks
How it was run: as §1

[10] = tested on: Polygonum convolvulus (POLCO); details: Fallopia convolvulus, 504 h, visual rating after about 3 weeks; for pest or weed control at 320 g/ha: read-out: Post-emergence effect at 320 g/ha against POLCO in %
How it was run: as §1

[11] = tested on: Setaria viridis (SETVI); details: visual rating after about 3 weeks; for pest or weed control at 320 g/ha: Setaria viridis, 504 h, read-out: Post-emergence effect at 320 g/ha against SETVI in %
How it was run: as §1

[12] = tested on: Veronica persica (VERPE); details: Veronica persica, 504 h, 320 g/ha, visual rating after about 3 weeks, read-out: Post-emergence effect at 320 g/ha against VERPE in %
How it was run: as §1

[13] = tested on: Viola tricolor (VIOTR); details: Viola tricolor, 504 h, read-out: Post-emergence effect against VIOTR
How it was run: as §1

[14] = Bassia scoparia, 504 h, read-out: Post-emergence effect against KCHSC

Row | SMILES | pest or weed control at 80 g/ha [1] [%] | pest or weed control at 320 g/ha [1] [%] | Post-emergence effect at 20 g/ha against AMARE in % [2] [%] | pest or weed control at 80 g/ha [2] [%] | pest or weed control at 320 g/ha [2] [%] | pest or weed control at 320 g/ha [3] [%] | pest or weed control at 320 g/ha [4, 14] [%] | pest or weed control at 320 g/ha [5] [%] | pest or weed control at 320 g/ha [6] [%] | pest or weed control at 320 g/ha [7] [%] | pest or weed control at 80 g/ha [8] [%] | pest or weed control at 320 g/ha [8] [%] | pest or weed control at 320 g/ha [10] [%] | pest or weed control at 320 g/ha [11] [%] | pest or weed control at 320 g/ha [12] [%] | pest or weed control at 20 g/ha [13] [%] | pest or weed control at 80 g/ha [13] [%] | pest or weed control at 320 g/ha [13] [%] | further results
1 | CCOC(=O)C(Oc1nn(-c2ncccc2F)c(-c2cncc(F)c2)c1Br)SC (centres unmarked) [Example I-39] | 90 | 90 | 80 | 80 | 90 | 90 | 90 | 90 | 90 | 90 | 80 | 90 | 80 | 90 | 80 | 80 | 80 | 90 | Post-emergence action at 20 g/ha against ABUTH in % ([1]; 20 g/ha): 80%; Post-emergence effect at 20 g/ha against KCHSC in % ([4]; 20 g/ha, visual rating after about 3 weeks): 80%; pest or weed control at 80 g/ha ([4]; Bassia scoparia, 504 h, 80 g/ha, read-out: Post-emergence effect against KCHSC): 90%; Post-emergence effect at 80 g/ha against DIGSA in % ([5]; 80 g/ha): 80%; pest or weed control at 80 g/ha ([6]; 80 g/ha, read-out: Post-emergence effect at 80 g/ha against ECHCG in %): 90%; pest or weed control at 80 g/ha ([9]; 80 g/ha, read-out: Post-emergence effect at 80 g/ha against PHBPU in %): 80%; pest or weed control at 320 g/ha ([9]; 320 g/ha, read-out: Post-emergence effect at 320 g/ha against PHBPU in %): 90%; pest or weed control at 80 g/ha ([10]; 80 g/ha, read-out: Post-emergence effect at 80 g/ha against POLCO in %): 80%; Post-emergence effect at 80 g/ha against SETVI in % ([11]; 80 g/ha): 90%
2 | CSC(Oc1nn(-c2ncccc2F)c(-c2cncc(F)c2)c1C1CC1)C(=O)O (centres unmarked) [Example I-44] | – | 90 | 80 | 90 | 90 | 90 | 90 | – | 90 | – | 80 | 90 | 80 | 80 | 90 | 90 | 90 | 90 | –
3 | CCOC(=O)C(Oc1nn(-c2ccccc2F)c(-c2ccc(F)nc2)c1C(F)(F)F)SC (centres unmarked) [Example I-46] | 80 | 80 | – | 80 | 80 | – | – | 80 | 90 | 100 | – | 90 | 80 | 80 | 80 | 80 | 80 | 90 | –

Reference: patent US20250026724A1, “(1,4,5-TRISUBSTITUTED 1H-PYRAZOL-3-YL)OXY-2-ALKYLTHIOALKYL ACIDS AND -ALKYL ACID DERIVATIVES, SALTS THEREOF AND USE THEREOF AS ACTIVE HERBICIDAL INGREDIENTS” (BAYER AKTIENGESELLSCHAFT, priority 2021, published 2025)
